# Structures can show the parent of a compound that is named as a salt.
# How the values were obtained:
# α1a (rat) adrenoreceptor = target: T1, α1a (rat) adrenoreceptor (Rattus norvegicus, UniProt P43140); assay: [3H]-prazosin radioligand binding, cloned α1a (rat) adrenoreceptor in LTK cells; details: cloned receptor in LTK cell membranes, [3H]prazosin 0.2 nM
# T1 sequence (P43140 1-466): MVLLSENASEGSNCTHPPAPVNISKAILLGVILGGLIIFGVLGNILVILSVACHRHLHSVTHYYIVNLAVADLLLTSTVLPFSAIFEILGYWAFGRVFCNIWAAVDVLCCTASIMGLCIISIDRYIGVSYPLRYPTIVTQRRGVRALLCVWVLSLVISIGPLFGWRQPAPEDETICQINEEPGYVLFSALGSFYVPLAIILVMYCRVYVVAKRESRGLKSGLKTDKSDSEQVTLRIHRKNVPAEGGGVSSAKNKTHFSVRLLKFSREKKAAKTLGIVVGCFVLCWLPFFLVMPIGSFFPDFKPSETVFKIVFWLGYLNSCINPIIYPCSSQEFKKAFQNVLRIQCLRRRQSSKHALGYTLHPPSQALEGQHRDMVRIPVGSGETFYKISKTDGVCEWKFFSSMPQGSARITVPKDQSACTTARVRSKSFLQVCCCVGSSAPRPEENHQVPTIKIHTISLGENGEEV
# Source text: (§1) The cDNA clones encoding the α1, adrenoreceptors were obtained from TULCO (Triangle Universities Licensing Consortium, Research Triangle Park, N.C.) and inserted into the eukaryotic expression vector SnaB30. In this vector, expression of the adrenoreceptor gene is under the transcriptional control of an SV40 early promoter. Positive drug selection is provided by a neomycin-resistance gene. Mouse fibroblast cells (LTK) were transfected with the α1 expression plasmids and grown in Dulbecco's modified Eagle's medium (DMEM) containing 10% fetal calf serum and 30 μM G418. […] Stable single cell clones derived from the parental lines were screened in adrenoreceptor binding assays to identify clones having high adrenoreceptor density. Roller bottle cultures of the cloned lines were used to provide cell membranes for subsequent adrenoreceptor binding characterization studies. A cell line containing the SnaB30 vector expressing the human erythropoietin gene served as a negative control.
# (§2) For adrenoreceptor binding assays, large scale membrane preparations were utilized in which 6 million cells were seeded into small (450 cm^2) Coming tissue culture roller bottles. DMEM (200 mL) containing 10% fetal calf serum and 300 μM G418 were added to each roller bottle. A 95% air/5% CO2 gas mixture (sterile) was injected into each roller bottle prior to sealing, and the bottles were then incubated at 37° C. on a roller rack for 5 days. Cells were refed with fresh medium after 3 days in culture.
# (§3) On the fifth day of culture, growth medium was removed from cells grown in roller bottles, and the cells were washed twice with PBS (Sigma, 120 mM NaCl, 2.7 mM KCl, 10 mM Na2HPO4-NaH2PO4, pH=7.4). Cells were detached from the roller bottles by incubating for 15 minutes at 37° C. in a Tris-EDTA solution (10 mM Tris, 100 mM NaCl, 1 mM EDTA, pH=7.4). The cell suspension from each roller bottle was decanted into tared centrifuge tubes and kept on ice. An aliquot of each cell suspension was generally taken for cell counting. Cells were centrifuged at 3000×G for 5 minutes at 2-4° C., washed with PBS and recentrifuged. The supernatant was decanted, and the pellet was weighed to determine the wet weight of cells. Cells were washed a final time in 40 vol 5 mM Tris-HCl, 5 mM EDTA, pH=7.7 and centrifuged at 40,000×G for 10 minutes (“vol” indicates volume/weight, e.g., a “vol” of 40 would indicate that the one gram of cells were washed with 40 mls of buffer). Cells were homogenized in of 50 mM Tris-HCl, 5 mM EDTA (pH=7.4) (10 mL) and diluted to 40 mL/tube. Homogenates were centrifuged at 40,000×G for 10 minutes. The supernatant was decanted and the pellets rehomogenized in 50 mM Tris-HCl (pH=7.4) and centrifuged as before.
# (§4) Following equilibration, bound radioligand was separated from free on GF/B filters (presoaked in 0.5% polyethyleneimine) using ither a Brandel or Packard cell harvester. Radioactivity was determined by standard liquid scintillation techniques.
# [1] = target: T2, α1b (Hamster) adrenoreceptor (Mesocricetus auratus, UniProt P18841); assay: [3H]-prazosin radioligand binding, cloned α1b (hamster) adrenoreceptor in LTK cells; details: cloned receptor in LTK cell membranes, [3H]prazosin 0.2 nM
# T2 sequence (P18841 1-515): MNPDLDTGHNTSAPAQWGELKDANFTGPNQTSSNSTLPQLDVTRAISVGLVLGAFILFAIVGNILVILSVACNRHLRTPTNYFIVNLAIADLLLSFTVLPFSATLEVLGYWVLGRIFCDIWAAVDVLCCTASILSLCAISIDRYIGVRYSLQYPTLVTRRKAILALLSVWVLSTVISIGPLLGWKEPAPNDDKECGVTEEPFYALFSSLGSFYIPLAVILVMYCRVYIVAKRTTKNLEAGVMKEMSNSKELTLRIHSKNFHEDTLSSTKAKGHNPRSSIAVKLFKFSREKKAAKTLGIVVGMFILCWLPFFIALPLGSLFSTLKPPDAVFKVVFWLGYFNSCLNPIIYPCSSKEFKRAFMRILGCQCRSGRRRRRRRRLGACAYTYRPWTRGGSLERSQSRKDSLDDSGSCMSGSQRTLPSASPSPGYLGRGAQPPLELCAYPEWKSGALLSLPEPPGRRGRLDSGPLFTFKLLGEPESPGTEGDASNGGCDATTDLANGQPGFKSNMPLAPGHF
# Source text: as §1, §2, §3, §4
Ki (α1a (rat) adrenoreceptor) [nM],Ki [1] [nM],melting point [°C],Compound
0.29,8.32,–,"COc1cccc2c1N1CCN(CCCCn3c(=O)[nH]c4c(sc5cccnc54)c3=O)CC1CO2 (single isomer, unassigned; (+)) [Example 14, (+) 3-[4-(10-methoxy-1,2,4a,5-tetrahydropyrazino[2,1-c][1,4]benzoxazin-3(4H)-yl)butyl]pyido [2′,3′:4,5]thieno[3,2-d]pyrimidine-2,4(1H,3H)-dione trihydrochloride]"
4.44,40.4,219 to 224,"COc1cccc2c1N1CCN(CCCn3c(=O)[nH]c4c(sc5cccnc54)c3=O)CC1CO2.Cl.Cl.Cl (single isomer, unassigned; (+)) [Example 17, (+) 3-[3-(10-methoxy-1,2,4a,5-tetrahydropyrazino[2,1-c][1,4]benzoxazin-3(4H)-yl)propyl]pyrido[2′,3′:4,5]thieno[3,2-d]pyrimidine-2,4(1H,3H)-dione trihydrochloride]"
1.55,39.1,280 to 282,"COc1cccc2c1N1CCN(CCn3c(=O)[nH]c4c(sc5ncc(Cl)nc54)c3=O)CC1CO2.Cl.Cl (single isomer, unassigned; (-)) [Example 13, (−) 3-[2-(10-methoxy-1,2,4a,5-tetrahydropyrazino[2,1-c][1,4]benzoxazin-3(4H)-yl)ethyl]-8-chloropyrazino[2′,3′:4,5]thieno[3,2-d]pyrimidine-2,4(1H,3H)-dione dihydrochloride]"
1.24,11.8,301 to 302,"COc1cccc2c1N1CCN(CCn3c(=O)[nH]c4c(sc5cccnc54)c3=O)CC1CO2.Cl.Cl.Cl (single isomer, unassigned; (+)) [Example 16, (+) 3-[2-(10-methoxy-1,2,4a,5-tetrahydropyrazino[2,1-c][1,4]benzoxazin-3(4H)-yl)ethyl]pyrido[2′,3′:4,5]thieno[3,2-d]pyrimidine-2,4(1H,3H)-dione trihydrochloride]"
0.447,13.8,225 to 230,"COc1cccc2c1N1CCN(CCCCn3c(=O)[nH]c4c(sc5ncccc54)c3=O)CC1CO2.Cl.Cl.Cl (single isomer, unassigned; (+)) [Example 15, (+) 3-[4-(10-methoxy-1,2,4a,5-tetrahydropyrazino[2,1-c][1,4]benzoxazin-3(4H)-yl)butyl]pyrido[3′,2′:4,5]thieno[3,2-d]pyrimidine-2,4(1H,3H)-dione trihydrochloride]"
0.24,2.71,–,"COc1cccc2c1N1CCN(CCCCn3c(=O)[nH]c4c(sc5ncccc54)c3=O)CC1CO2 (single isomer, unassigned; (-)) [Example 11, (−) 3-[4-(10-methoxy-1,2,4a,5-tetrahydropyrazino[2,1-c][1,4]benzoxazin-3(4H)-yl)butyl]pyrido[3′,2′:4.5]thieno[3,2-d]pyrimidine-2,4(1H,3H)-dione trihydrochloride]"

# The remaining lines, values behind:
Compound,Ki (α1a (rat) adrenoreceptor) [nM],Ki [1] [nM],melting point [°C]
"COc1cccc2c1N1CCN(CCCn3c(=O)[nH]c4c(sc5cccnc54)c3=O)CC1CO2.Cl.Cl.Cl (single isomer, unassigned; (-)) [Example 9, (−) 3-[3-(10-methoxy-1,2,4a,5-tetrahydropyrazino[2,1-c][1,4]benzoxazin-3(4H)-yl)propyl]pyrido[2′,3′:4,5]thieno[3,2-d]pyrimidine-2,4(1H, 3H)-dione trihydrochloride]",0.359,3.86,215 to 220
"Cl.Cl.O=c1[nH]c2c(sc3cccnc32)c(=O)n1CCCCN1CCN2c3ccccc3OCC2C1 (single isomer, unassigned; (+)) [Example 3, (+) 3-[4-(1,2,4a,5-tetrahydropyrazino[2,1-c][1,4]benzoxazin-3(4H)-yl)butyl]pyrido[2′, 3′:4,5]thieno[3,2-d]pyrimidine-2,4(1H,3H)-dione dihydrochloride]",2.85,32.4,278 to 280
"Cl.Cl.O=c1[nH]c2c(sc3ncccc32)c(=O)n1CCCCN1CCN2c3ccccc3OCC2C1 (single isomer, unassigned; (-)) [Example 6, (−) 3-[4-(1,2,4a,5-tetrahydropyrazino[2,1-c][1,4]benzoxazin-3(4H)-yl)butyl]pyrido[3′, 2′:4,5]thieno[3,2-d]pyrimidine-2,4(1H,3H)-dione dihydrochloride]",9.83,27.3,290 to 293
"Cl.Cl.O=c1[nH]c2c(sc3cccnc32)c(=O)n1CCCN1CCN2c3ccccc3OCC2C1 (single isomer, unassigned; (+)) [Example 1, (+) 3-[3-(1,2,4a,5-tetrahydropyrazino[2,1-c][1,4]benzoxazin-3(4H)-yl)propyl]pyrido[2′,3′:4,5]thieno[3,2-d]pyrimidine-2,4(1H,3H)-dione dihydrochloride]",1.84,14.3,278 to 282
"COc1cccc2c1N1CCN(CCn3c(=O)[nH]c4c(sc5ncc(Cl)nc54)c3=O)CC1CO2.Cl.Cl (single isomer, unassigned; (+)) [Example 8, (+) 3-[2-(10-methoxy-1,2,4a,5-tetrahydropyrazino[2,1-c][1,4]benzoxazin-3(4H)-yl)ethyl]-8-chloropyrazino[2′,3′:4,5]thieno[3,2-d]pyrimidine-2,4(1H,3H)-dione dihydrochloride]",1.78,58.1,280 to 283
"(−) 3-[3-(10-methoxy-1,2,4a,5-tetrahydropyrazino[2,1-c][1,4]benzoxazin-3(4H)-yl)butyl]pyrido[2′,3′:4,5]thieno[3,2-d]pyrimidine-2,4(1H,3H)-dione trihydrochloride [Example 10]",0.257,1.81,–
"O=c1[nH]c2c(sc3cccnc32)c(=O)n1CCCN1CCN2c3ccccc3OCC2C1 (single isomer, unassigned; (-)) [Example 2, (−) 3-[3-(1,2,4a,5-tetrahydropyrazino[2,1-c][1,4]benzoxazin-3(4H)-yl)propyl]pyrido[2′,3′:4,5]thieno[3,2-d]pyrimidine-2,4(1H,3H)-dione dihydrochloride]",19.3,24.6,–
"O=c1[nH]c2c(sc3cccnc32)c(=O)n1CCCCN1CCN2c3ccccc3OCC2C1 (single isomer, unassigned; (-)) [Example 4, (−) 3-[4-(1.2,4a,5-tetrahydropyrazino[2,1-c][1,4benzoxazin-3(4H)-yl)butyl]pyrido[2′,3′:4,5]thieno[3,2-d]pyrimidine-2,4(1H,3H)-dione dihydrochloride]",6.62,26.5,–

# Source: patent US6376488B1, “Benzoxazine α-1 adrenergic compounds” (Abbott Laboratories, priority 2000, dated 2002)
